In one assay the test system is MCF7. Nature of the assay: Cell proliferation/viability with BIA, IC50 after 3 days. The format is cell-based. Particulars: Homo sapiens, MCF7, 72 h; MCF cells, treatment for 3 days.
Assay [1] has as its system BI-1 (TMBIM6). Kind of assay: TMBIM6-GCaMP3 fluorescence, calcium released through BI-1. The format is cell-based. Particulars: HT1080 cells expressing TMBIM6-GCaMP3, BIA 10 μM, over time.
Assay [2] addresses T1, BI-1 (TMBIM6) (Homo sapiens, UniProt P55061).
T1 construct: endogenous in cells; host or cells: HT1080 cells transfected only with the G-CEPIAer indicator plasmid
Nature of the assay: G-CEPIAer ER lumen calcium indicator. The class given is cell-based. The conditions noted are these: HT1080, 10 μM BIA, compared to untreated control cells. Here is the method: FIG. 74B is a result of treating HT1080 cells with BIA 10 μM and observing the fluorescence intensity of G-CEPIAer designed to measure calcium concentration inside
Since BI-1 regulates mTORC2 activation through ER Ca2+ release, the above results confirmed whether BIA inhibits Ca2+ release from BI-1.
On the other hand, when BIA is treated, calcium inside ER increases because […] in ER inhibits calcium. This was expressed G-CEPIAer, which measures the calcium concentration inside ER, and metamorphed HT1080 cells using CEPIAer plasmid to create stable cells. This transfected cell can be used to detect only free calcium from ER via BI-1 (TMBIM6) based on the calcium channel-like nature of BI-1 (TMBIM6). By confirming the increase in fluorescence, it was possible to confirm the specificity of the BIA (see FIG. 74B).

The test system of a further assay is BAL inflammatory cells. Nature of the assay: Aspergillus-infected asthmatic mouse model, BAL cells and lung histology. The class given is in vivo. The conditions noted are these: asthma-inducing group; BIA 0.1 mg/kg and 0.01 mg/kg, IC87114 1 mg/kg, intratracheal. An excerpt:
FIG. 80A and FIG. 80B show mice that were infected with aspergillus with or without BIA, or IC87114, fixing the tissue to 4% formalin, injecting paraffin to make blocks, and then cutting into 4 μm thick to react to buffer and performing hematoxylin-eosin staining. The observation result (A) and the observation result (B) by PAS staining are shown.
The result is quantified by counting the total number of cells of living BAL fluid, excluding dead cells stained in trypan blue.
A. fumigatus-induced allergic pulmonary inflammation To establish the model, mice were treated with 10 μg of A. fumigatus crude antigen extract (Greer Laboratories, Cat # XPM3D3A4, Lenoir, NC, USA) with fungal substance inactivated. 0.2 ml of incomplete Freund's adjuvant (Sigma-Aldrich, Cat # F5506-6X) in regular saline It was dissolved and mixed, and half of the preparation was deposited in the peritoneal cavity and the rest was delivered subcutaneously. After 2 weeks, mice received 20 μg of A. fumigatus antigen dissolved in normal saline through the intranasal route, after an intranasal attack After 4 days, 20 μg of A. Fumigatus antigen dissolved in normal saline was treated via the endotracheal route. Control mice were administered only saline at the same time point in time through the same route and treated with the same number of conidia. […]

Each structure is given as a SMILES string. Entries after “also recorded” stand apart in the source; their conditions may differ.

T1 sequence (P55061 whole entry): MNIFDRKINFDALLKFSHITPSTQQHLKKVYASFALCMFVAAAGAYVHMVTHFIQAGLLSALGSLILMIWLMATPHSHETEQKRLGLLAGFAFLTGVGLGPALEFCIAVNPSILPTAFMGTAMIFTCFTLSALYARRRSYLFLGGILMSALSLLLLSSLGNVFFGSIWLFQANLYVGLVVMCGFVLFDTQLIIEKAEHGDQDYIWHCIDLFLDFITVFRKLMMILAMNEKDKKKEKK

For `Nc1ccccc1C(=O)/C=C/c1cccc([N+](=O)[O-])c1` [BIA, 2E-1-2-Aminophenyl-3-3-nitrophenyl-2-propen-1-one], it took 2600 ± 400 nM to reach half-maximal inhibition with MCF7 (IC50). In the assay with BI-1 (TMBIM6) [1], the BI-1-GCaMP3 fluorescence intensity result is “decreasing pattern; also recorded: decreased over time”. The “G-CEPIAer fluorescence intensity (ER calcium)” value at BI-1 (TMBIM6) [2] is recorded as “increased”. Moreover, in the assay with BAL inflammatory cells, the “all BAL inflammatory cells” value is on record as “inhibited”.

These data come from US20240139125A1 (INDUSTRIAL COOPERATION FOUNDATION JEONBUK NATIONAL …, priority 2020, published 2024).
